Here are results for three molecules from publication PMC5516258, “A Nonredundant Phosphopantetheinyl Transferase, PptA, Is a Novel Antifungal Target That Directs Secondary Metabolite, Siderophore, and Lysine Biosynthesis in Aspergillus fumigatus and Is Critical for Pathogenicity” (mBio, 2017).

One test addresses T1, HS-PPTase (AASDHPPT) (Homo sapiens, UniProt Q9NRN7).
T1 construct: cDNA cloned into pET43.1, E. coli BL21(DE3), Ni-NTA purified
T1 sequence (Q9NRN7 1-309): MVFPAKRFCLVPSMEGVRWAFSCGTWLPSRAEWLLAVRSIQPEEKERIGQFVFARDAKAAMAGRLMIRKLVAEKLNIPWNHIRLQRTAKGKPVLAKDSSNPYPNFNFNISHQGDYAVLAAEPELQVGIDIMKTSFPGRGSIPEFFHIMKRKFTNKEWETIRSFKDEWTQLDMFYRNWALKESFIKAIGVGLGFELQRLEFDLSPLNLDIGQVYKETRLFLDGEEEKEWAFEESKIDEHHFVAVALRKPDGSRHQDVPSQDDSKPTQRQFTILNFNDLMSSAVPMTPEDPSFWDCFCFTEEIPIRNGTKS
As to the kind of experiment: fluorescence polarization, transfer of BODIPY-TMR-labelled phosphopantetheine from CoA to human ACP domain. As to conditions: read-out: no inhibition at concentrations up to 200 μM. Type of test: biochemical. For orientation: In fluorescence polarisation assays a small probe gives low polarisation when free and higher when bound to something large.

For test [1], the target named is T2, PptA (AFPptA; AFPptA-GST) (Aspergillus fumigatus, UniProt B0XWE4).
T2 construct: gene AFUB_024520
As to the kind of experiment: fluorescence polarization, transfer of BODIPY-TMR-labelled phosphopantetheine from CoA to AarA. Type of test: biochemical.

Where two headings read alike, the source gives them in different places.

T2 sequence (B0XWE4 entry or part of it): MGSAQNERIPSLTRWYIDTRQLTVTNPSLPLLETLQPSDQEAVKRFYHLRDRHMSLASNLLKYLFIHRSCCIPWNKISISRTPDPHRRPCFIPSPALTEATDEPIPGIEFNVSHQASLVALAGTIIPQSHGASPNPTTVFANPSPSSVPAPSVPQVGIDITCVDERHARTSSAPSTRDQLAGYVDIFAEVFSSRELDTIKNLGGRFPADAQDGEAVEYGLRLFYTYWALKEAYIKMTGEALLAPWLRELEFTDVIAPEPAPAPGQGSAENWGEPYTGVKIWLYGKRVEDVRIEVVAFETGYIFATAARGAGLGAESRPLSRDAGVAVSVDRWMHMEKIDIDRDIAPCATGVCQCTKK

`O=Nc1ccc2oc(=O)ccc2c1` [6-nitroso-1,2-benzopyrone]: the values for the IC50 (on HS-PPTase (AASDHPPT); in test [1]) were above 200 µM and 35.2 µM, respectively.
For the molecule `N=C1Sc2ccccc2C2=NCCCN12` [PD 404,182], in test [1], the IC50 was 3.9 µM.
For `Clc1ccc(C(c2ccc(Cl)cc2)n2cc[n+](CC(OCc3ccc(Cl)cc3Cl)c3ccc(Cl)cc3Cl)c2)cc1` (stereo not shown) [calmidazolium chloride], in test [1] (acceptor A. fumigatus AarA 750 ng, BODIPY-TMR-CoA, 62.5 mM bis-Tris pH 6.5, 12.5 mM Mg chloride, room temperature, 100 ng PptA, triplicate, doubling dilutions from 100 µM), the IC50 is 19.2 µM.
